Assay results from paper PMC5963102 (International Journal for Parasitology: Drugs and Drug …, 2017).
Where two headings read alike, the source gives them in different places.

What was measured:
[1] = biological target: Asu-ACR-16 (nicotine sensitive nAChR) (Ascaris suum, UniProt F1KYJ9); assay: Two-electrode voltage-clamp on Asu-ACR-16 nAChR expressed in Xenopus laevis oocytes; format: cell-based
Procedure: (§1) All nAChR subunit and ancillary factor cRNAs from A. suum (Asu-acr-16 and Asu-ric-3), O. dentatum (Ode-unc-29, Ode-unc-38, […] and Ode-acr-8) and H. contortus (Hco-ric-3, Hco-unc-50 and Hco-unc-74) were prepared as previously described ([Abongwa et al., 2016a], [Buxton et al., 2014]). Briefly, defolliculated X. laevis oocytes were obtained from Ecocyte Bioscience (Austin, TX, USA). A Nanoject II microinjector (Drummond Scientific, Broomall, PA, USA) was used to inject cRNA into the cytoplasm at the animal pole region of the oocytes. Homomeric nAChRs comprising Asu-ACR-16 subunits were expressed by co-injecting 25 ng of Asu-acr-16 with 5 ng of Asu-ric-3 in a total volume of 50 nl in nuclease-free water. Heteromeric nAChRs from O. dentatum were expressed by co-injecting 1.8 ng of each subunit cRNA that make up the levamisole (Ode-unc-29, Ode-unc-38, […] and Ode-acr-8) or pyrantel/tribendimidine (Ode-unc-29, Ode-unc-38 and Ode-unc-63) receptor with 1.8 ng of each H. contortus ancillary factor (Hco-ric-3, Hco-unc-50 and Hco-unc-74) in a total volume of 36 nl in nuclease-free water. Injected oocytes were transferred to 96-well microtiter plates containing 200 μl incubation solution (100 mM NaCl, 2 mM KCl, 1.8 mM CaCl2·2H20, 1 mM MgCl2·6H20, 5 mM HEPES, 2.5 mM Na pyruvate, 100 U·ml^−1penicillin and 100 μg ml^−1 streptomycin, pH 7.5) and incubated at 19 °C for 5–7 days to allow for functional receptor expression. Incubation solution was changed daily.
(§2) Currents produced by activation of expressed Asu-ACR-16 and Ode levamisole sensitive and Ode pyrantel/tribendimidine sensitive receptors were recorded using the two-electrode voltage-clamp electrophysiology technique as previously described ([Abongwa et al., 2016a], [Buxton et al., 2014]). 100 μM BAPTA-AM was added to the oocyte incubation solution about 4 h prior to recording to prevent activation of endogenous calcium-activated chloride currents during recording. Recordings were made using an Axoclamp 2B amplifier (Molecular Devices, Sunnyvale, CA, USA) and data acquired on a computer with Clampex 10.3 (Molecular Devices, Sunnyvale, CA, USA). For all experiments, oocytes were voltage-clamped at −60 mV. Microelectrodes for impaling oocytes were pulled using a Flaming/Brown horizontal electrode puller (Model P-97; Sutter Instruments, Novato, CA, USA). The microelectrodes were filled with 3 M KCl and their tips carefully broken with a piece of tissue paper to attain a resistance of 2–5 MΩ in recording solution (100 mM NaCl, 2.5 mM KCl, 1 mM CaCl2·2H2O and 5 mM HEPES, pH 7.3).
(§3) Electrophysiology data was measured with Clampfit 10.3 (Molecular devices, Sunnyvale CA, USA) and analyzed with GraphPad Prism 5.0 (GraphPad Software Inc., La Jolla, CA, USA). […] Concentration-response relationships (for each oocyte) were analyzed by fitting log concentration-response data points with the Hill equation as previously described ([Boulin et al., 2008]). % inhibition for monepantel was calculated using 100-Rmax for each experiment and plotted as mean ± s.e.m. on the concentration-inhibition plots. IC50's were calculated as previously described ([Zheng et al., 2016]). We used one-way ANOVA to test for statistical differences among treatment groups. If the group means were statistically different (p < .05), we used the Tukey multiple comparison test to determine significant differences between groups.

A. suum muscle flaps = assay: Muscle contraction assay, isometric contractions of Ascaris body muscle flaps; format: cell-based, Ascaris suum; settings: for EC50: Ascaris suum
Procedure: Adult A. suum were collected from the IMES slaughterhouse, Belgrade, Serbia and maintained in Locke's solution (155 mM NaCl, 5 mM KCl, 2 mM CaCl2, 1.5 mM NaHCO3 and 5 mM glucose) at 32 °C for 5 days. Locke's solution was changed daily. Ascaris muscle flaps for contraction studies were prepared as described in [Trailović et al. (2015)]. Briefly, 1 cm muscle body flaps were prepared by dissecting the anterior 2–3 cm part of the worm. A force transducer in an experimental bath containing 20 ml APF (23 mM NaCl, 110 mM Na acetate, 24 mM KCl, 6 mM CaCl2, 5 mM MgCl2, 11 mM glucose, 5 mM HEPES, pH 7.6) and 0.1% DMSO and bubbled with nitrogen was attached to each muscle flap. The bath was maintained at 37 °C during which isometric contractions of each flap were monitored on a PC computer using a BioSmart interface and eLAB software (EIUnit, Belgrade). The system allows real time recording, display and analysis of experimental data.
Isometric contractions of each Ascaris muscle flap in the absence and presence of monepantel were monitored on a PC computer using eLAB software (EIUnit, Belgrade). GraphPad Prism 5.0 (GraphPad Software Inc., La Jolla, CA, USA) was used to analyze the data. […] Single concentration-response relationships were fitted to the data as described in Section 2.5.1.

[2] = biological target: Ode pyrantel/tribendimidine nAChR (Ode-UNC-29:Ode-UNC-38:Ode-UNC-63) (Oesophagostomum dentatum, UniProt E5KIX9+V5J2B2+V5J336); assay: Two-electrode voltage-clamp on Ode pyrantel/tribendimidine receptors expressed in Xenopus laevis oocytes; format: cell-based
Ode pyrantel/tribendimidine nAChR (Ode-UNC-29:Ode-UNC-38:Ode-UNC-63), sequence (V5J336 entry or part of it): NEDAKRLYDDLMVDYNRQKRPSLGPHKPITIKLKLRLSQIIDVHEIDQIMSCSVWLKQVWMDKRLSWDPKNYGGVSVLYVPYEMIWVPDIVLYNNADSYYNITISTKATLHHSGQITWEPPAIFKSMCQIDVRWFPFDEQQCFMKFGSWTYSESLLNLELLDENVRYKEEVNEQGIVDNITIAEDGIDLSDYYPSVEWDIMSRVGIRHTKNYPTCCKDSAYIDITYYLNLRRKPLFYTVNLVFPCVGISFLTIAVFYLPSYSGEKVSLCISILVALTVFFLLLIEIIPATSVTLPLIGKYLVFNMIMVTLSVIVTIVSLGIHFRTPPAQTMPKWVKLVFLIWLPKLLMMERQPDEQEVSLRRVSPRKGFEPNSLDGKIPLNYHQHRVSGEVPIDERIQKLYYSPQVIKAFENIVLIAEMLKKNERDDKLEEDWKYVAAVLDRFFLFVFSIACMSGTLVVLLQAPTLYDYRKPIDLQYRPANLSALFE
Ode pyrantel/tribendimidine nAChR (Ode-UNC-29:Ode-UNC-38:Ode-UNC-63), sequence (V5J2B2 entry or part of it): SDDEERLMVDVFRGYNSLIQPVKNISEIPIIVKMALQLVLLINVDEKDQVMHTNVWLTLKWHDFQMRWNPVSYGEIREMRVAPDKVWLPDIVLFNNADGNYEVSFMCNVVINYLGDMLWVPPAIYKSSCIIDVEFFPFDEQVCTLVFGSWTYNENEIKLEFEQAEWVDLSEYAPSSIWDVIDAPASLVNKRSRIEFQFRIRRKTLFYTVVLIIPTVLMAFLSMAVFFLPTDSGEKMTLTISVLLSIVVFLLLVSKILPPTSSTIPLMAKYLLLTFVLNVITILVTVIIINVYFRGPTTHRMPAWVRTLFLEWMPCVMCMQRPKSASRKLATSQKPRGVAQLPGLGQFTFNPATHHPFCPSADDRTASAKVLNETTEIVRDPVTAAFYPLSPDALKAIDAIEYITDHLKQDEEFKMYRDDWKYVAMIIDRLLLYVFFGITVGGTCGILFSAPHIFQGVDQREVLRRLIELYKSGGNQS
Ode pyrantel/tribendimidine nAChR (Ode-UNC-29:Ode-UNC-38:Ode-UNC-63), sequence (E5KIX9 entry or part of it): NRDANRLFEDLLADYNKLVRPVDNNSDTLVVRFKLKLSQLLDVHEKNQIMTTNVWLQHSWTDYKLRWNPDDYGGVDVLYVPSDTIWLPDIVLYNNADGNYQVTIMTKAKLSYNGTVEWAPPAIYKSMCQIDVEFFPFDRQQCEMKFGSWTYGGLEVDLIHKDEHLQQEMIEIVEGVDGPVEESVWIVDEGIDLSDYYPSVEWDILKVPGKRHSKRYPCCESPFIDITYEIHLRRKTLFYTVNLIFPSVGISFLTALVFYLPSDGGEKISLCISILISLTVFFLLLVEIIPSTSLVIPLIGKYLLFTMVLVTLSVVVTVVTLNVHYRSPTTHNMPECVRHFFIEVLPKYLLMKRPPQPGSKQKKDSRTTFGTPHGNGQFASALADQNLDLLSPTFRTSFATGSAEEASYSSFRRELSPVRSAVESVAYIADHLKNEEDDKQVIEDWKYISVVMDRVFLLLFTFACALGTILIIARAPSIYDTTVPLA
Procedure: as §1, §2, §3

[3] = biological target: Ode levamisole nAChR (Ode-UNC-29:Ode-UNC-38:Ode-UNC-63:Ode-ACR-8) (Oesophagostomum dentatum, UniProt E5KIX9+L7MMZ7+V5J2B2+V5J336); assay: Two-electrode voltage-clamp on Ode levamisole receptors expressed in Xenopus laevis oocytes; format: cell-based
Ode levamisole nAChR (Ode-UNC-29:Ode-UNC-38:Ode-UNC-63:Ode-ACR-8), sequence (L7MMZ7 entry or part of it): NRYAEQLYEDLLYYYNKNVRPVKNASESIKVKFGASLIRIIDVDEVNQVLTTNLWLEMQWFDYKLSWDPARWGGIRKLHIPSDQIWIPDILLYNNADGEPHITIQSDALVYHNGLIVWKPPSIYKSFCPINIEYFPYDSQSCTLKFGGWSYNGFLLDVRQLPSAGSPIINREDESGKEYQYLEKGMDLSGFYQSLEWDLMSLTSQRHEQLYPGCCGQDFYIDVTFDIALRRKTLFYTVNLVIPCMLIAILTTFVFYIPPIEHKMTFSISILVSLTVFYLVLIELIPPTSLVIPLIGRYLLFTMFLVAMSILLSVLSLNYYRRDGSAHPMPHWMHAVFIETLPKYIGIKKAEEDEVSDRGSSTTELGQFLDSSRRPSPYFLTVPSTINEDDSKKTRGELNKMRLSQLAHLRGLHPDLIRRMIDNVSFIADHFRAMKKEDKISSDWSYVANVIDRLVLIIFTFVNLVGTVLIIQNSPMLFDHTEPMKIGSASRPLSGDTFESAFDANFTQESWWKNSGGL
Ode levamisole nAChR (Ode-UNC-29:Ode-UNC-38:Ode-UNC-63:Ode-ACR-8), sequence (V5J2B2 entry or part of it): as the sequence (V5J2B2 entry or part of it) above
Ode levamisole nAChR (Ode-UNC-29:Ode-UNC-38:Ode-UNC-63:Ode-ACR-8), sequence (E5KIX9 entry or part of it): as the sequence (E5KIX9 entry or part of it) above
Ode levamisole nAChR (Ode-UNC-29:Ode-UNC-38:Ode-UNC-63:Ode-ACR-8), sequence (V5J336 entry or part of it): as the sequence (V5J336 entry or part of it) above
Procedure: as §1
as §2, with “Microelectrodes for impaling oocytes were pulled using a Flaming/Brown horizontal electrode puller (Model P-97; Sutter Instruments, Novato, CA, USA). The microelectrodes were filled with 3 M KCl and their tips carefully broken with a piece of tissue paper to attain a resistance of 2–5 MΩ in recording solution (100 mM NaCl, 2.5 mM KCl, 1 mM CaCl2·2H2O and 5 mM HEPES, pH 7.3).” left out
as §3, with “We used one-way ANOVA to test for statistical differences among treatment groups. If the group means were statistically different (p < .05), we used the Tukey multiple comparison test to determine significant differences between groups.” left out

A. suum = test system: A. suum; design: method as in Tritten et al., 2011; settings: 600 mg/kg; ref Tritten et al., 2011; cited from earlier work
[4] = test system: H. contortus MPTL-1 receptors; design: method as in Baur et al., 2015; settings: ref Baur et al., 2015, cited from earlier work
[5] = test system: C. elegans ACR-20 receptors; design: method as in Baur et al., 2015; settings: ref Baur et al., 2015, cited from earlier work
[6] = read-out: acetylcholine Rmax (mean ± s.e.m.)

Asu-ACR-16 (nicotine sensitive nAChR), sequence (F1KYJ9 entry or part of it): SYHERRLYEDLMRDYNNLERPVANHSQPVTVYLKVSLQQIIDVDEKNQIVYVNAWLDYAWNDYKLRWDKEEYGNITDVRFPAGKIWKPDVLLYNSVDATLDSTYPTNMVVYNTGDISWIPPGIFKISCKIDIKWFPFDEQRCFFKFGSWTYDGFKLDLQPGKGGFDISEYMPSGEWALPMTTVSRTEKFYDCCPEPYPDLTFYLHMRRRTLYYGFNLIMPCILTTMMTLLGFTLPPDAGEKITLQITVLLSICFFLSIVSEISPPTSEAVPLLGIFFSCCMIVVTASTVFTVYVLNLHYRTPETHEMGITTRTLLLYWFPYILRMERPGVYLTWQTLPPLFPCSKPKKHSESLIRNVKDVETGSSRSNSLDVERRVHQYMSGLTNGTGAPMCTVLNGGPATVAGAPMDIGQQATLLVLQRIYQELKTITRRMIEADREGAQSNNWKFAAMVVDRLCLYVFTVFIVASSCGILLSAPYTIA

Q: For `CC(=O)OCC[N+](C)(C)C` [Acetylcholine], which Emax [1, 6] is on record?
A: 97.5 ± 1.2%

Q: What about the EC50 (A. suum muscle flaps; read-out: acetylcholine EC50 (contraction)) of the same compound?
A: 5.3 µM

Q: What about the EC50 (A. suum muscle flaps; read-out: acetylcholine log EC50 ± s.e.m. (contraction) (converted)) of the same compound?
A: 5.01 µM

Q: What about the “acetylcholine Rmax (mean ± s.e.m.), contraction” value (from here on “acetylcholine Rmax”) (A. suum muscle flaps; acetylcholine alone (control)) of the same compound?
A: 1.7 ± 0.4 g

Q: What about the EC50 [2] of the same compound?
A: 11.3 ± 1.3 µM

Q: And the Emax [2, 6]?
A: 118 ± 4.5%

Q: What about the Emax [3, 6] of the same compound?
A: 108.8 ± 1%

Q: For `C[C@](C#N)(COc1cc(C#N)ccc1C(F)(F)F)NC(=O)c1ccc(SC(F)(F)F)cc1` [monepantel, N-[(2S)-2-cyano-1-[5-cyano-2-(trifluoromethyl)phenoxy]propan-2-yl]-4-(trifluoromethylsulfanyl)benzamide], which IC50 [1] is on record?
A: 0.2 µM

Q: What about the “type of antagonism of acetylcholine responses” value ([1]; co-applied with acetylcholine) of the same compound?
A: non-competitive antagonism

Q: What about the maximum inhibition ([1]; component with IC50 1.6 nM) of the same compound?
A: 40%

Q: What about the maximum inhibition ([1]; component with IC50 0.2 μM) of the same compound?
A: ~100%

Q: And the “agonist action (receptor activation)” value ([1]; monepantel applied on its own)?
A: did not cause activation

Q: And the “in vivo activity against A. suum” value (A. suum)?
A: lack in vivo activity

Q: And the “type of antagonism of acetylcholine induced contractions” value (A. suum muscle flaps; 1-30 μM monepantel)?
A: mixture of competitive and non-competitive antagonism

Q: And the “acetylcholine Rmax” value (A. suum muscle flaps; in the presence of 3 μM monepantel)?
A: 1.1 ± 0.3 g

Q: What about the “acetylcholine Rmax” value (A. suum muscle flaps; in the presence of 10 μM monepantel) of the same compound?
A: 1.1 ± 0.5 g

Q: And the “acetylcholine Rmax” value (A. suum muscle flaps; in the presence of 30 μM monepantel)?
A: 0.5 ± 0.4 g

Q: And the “effect on baseline tension” value (A. suum muscle flaps; monepantel on its own)?
A: did not produce any significant change in baseline tension

Q: What about the IC50 [2] of the same compound?
A: 1.7 ± 0.7 µM

Q: And the “type of antagonism of acetylcholine responses” value ([2]; co-applied with acetylcholine)?
A: non-competitive antagonism

Q: What about the “agonist action (receptor activation)” value ([2]; monepantel alone) of the same compound?
A: did not activate

Q: And the IC50 [3]?
A: 5 ± 0.5 µM

Q: What about the “type of antagonism of acetylcholine responses” value ([3]; co-applied with acetylcholine) of the same compound?
A: non-competitive antagonist

Q: What about the “agonist action (receptor activation)” value ([3]; monepantel applied alone) of the same compound?
A: failed to activate

Q: What about the “concentration at which it acts as direct agonist” value ([4]; high concentrations) of the same compound?
A: > 0.1 µM

Q: What about the “concentration at which it acts as positive allosteric modulator” value ([4]; low concentrations) of the same compound?
A: < 1 nM

Q: What about the “concentration at which it acts as direct agonist” value ([5]; high concentrations) of the same compound?
A: > 0.1 µM

Q: What about the “concentration at which it acts as positive allosteric modulator” value ([5]; low concentrations) of the same compound?
A: < 1 nM
